Assay results reported in EP4613269A1, “RIFAXIMIN FOR USE IN TREATING SARCOPENIA IN PATIENTS WITH LIVER DISEASE” (priority 2024, dated 2025).

How the values were obtained:
[1] = Retrospective cohort study: skeletal muscle area (SMA) at L3 from serial abdominal CT scans; type: in vivo, human; settings: for Follow-up skeletal muscle area: Median (IQR) at second CT scan, rifaximin N = 63 (with lactulose), lactulose alone N = 79; for median change in SMA: between first and second abdominal CT scan (3-9 months apart), patients with cirrhosis and HE, rifaximin 550 mg twice daily orally with lactulose vs lactulose monotherapy
From the text: (§1) This study is a single-centre retrospective cohort study of patients treated with lactulose or rifaximin with lactulose, under the care of the liver transplant service in Melbourne, Australia, between 2009 and 2022. The primary outcome measure was a change in muscle mass over time between the rifaximin versus non-rifaximin treated cohort. Secondary outcomes included. Clostridium difficile infection and mortality.
(§2) All adult patients (age >18 years) with cirrhosis and documented clinically apparent hepatic encephalopathy (HE) known to the Victorian liver transplant service were considered for analysis. Inclusion criteria required patients to have had serial abdominal CT scans at least 3 months and at most 9 months apart during their time on the liver transplant waitlist to allow for comparison of muscle mass over time. Rifaximin became widely available as a treatment of HE on the Pharmaceutical Benefits Scheme in Australia in January 2014. Therefore, patients on lactulose monotherapy (January 2009 to December 2013) were compared to those receiving rifaximin with lactulose (January 2014 to July 2022). Patients were orally administered 550 mg of rifaximin (alpha) twice daily. Lactulose treatment for HE was under standard conditions, i.e. lactulose administration in syrup form at a dose of 15 to 30 mL two to four times a day to aim for two semisoft stools per day. Patients otherwise received standard of care management of cirrhosis including nutritional advice from an experienced liver dietitian.
Muscle mass data was calculated from CT scans performed at two time-points in the patient journey to determine progress and change of outcomes. The first time-point for data collection, including for demographics and blood parameters, was time of first CT. The second time-point for data collection was collected between three to nine months following the first time point when the follow up CT was performed.
SMA was measured using the cross-sectional area of the abdominal muscles at the third lumbar vertebrae (L3) using CoreSlicer (^©2018), a web-based program for accurate measurement of body composition, verified for this purpose (Mullie & Afilalo "CoreSlicer: a web toolkit for analytic morphomics" BMC Med. Imaging (2019), 19(1): 15).
Statistical analysis was performed using R version 4.1.1. Subgroups were compared by χ^2 test for categorical variables and Student's t-test or Wilcoxon rank sum test for parametric and non-parametric continuous variables, respectively. Linear regression models (analysis of covariance) were used to assess the impact of clinical variables on muscle endpoints. […]
Averages were expressed as mean ± standard deviation for normally distributed variables, and as medians ± IQR for non-normally distributed variables.

[2] = Retrospective cohort study: clinical outcomes (transplant outcome, mortality, Clostridium difficile infection); type: in vivo, human; settings: for Transplant outcome: Died on list: died awaiting transplantation; for episodes of Clostridium difficile infection: during study follow-up; for Transplant outcome: Delisted / Transplant outcome: Rejected / Transplant outcome: Transplanted: liver transplant waitlist patients with cirrhosis and HE; for median time to death from listing: patients who died awaiting transplant; for Median time-to-transplant: transplanted patients
From the text: as §1, §2
Included data comprised baseline demographics (age, gender, aetiology of liver disease, body mass index (BMI)); disease assessment at workup (Sodium Model of End-Stage Liver Disease (NaMELD)), Child-Pugh-Turcotte (CTP) score; sarcopenia assessment (skeletal muscle area (SMA, cm^2)) from single slice CT scan, sepsis (hospitalisation data for infective complications, episodes of spontaneous bacterial peritonitis); rifaximin complications (Clostridium difficile infections); and mortality and transplantation outcome data.
Patients were followed up until: end outcomes occurred; delisting from service; rejected prior to formal transplant workup; death prior to transplant; or liver transplantation.

Compound | Follow-up skeletal muscle area [1] | median change in SMA [1] | Transplant outcome: Died on list [2] | Transplant outcome: Died on list ([2]; listed as lactulose) | episodes of Clostridium difficile infection [2] | Transplant outcome: Delisted [2] | Transplant outcome: Rejected [2] | Transplant outcome: Transplanted [2] | median time to death from listing [2] | Median time-to-transplant [2]
OC[C@H]1O[C@@H](O[C@@H]2[C@@H](CO)OC(O)(CO)[C@H]2O)[C@H](O)[C@@H](O)[C@H]1O (mixture of isomers) [Lactulose alone, Lactulose] | 159 (137, 174) cm^2 | -6.9 cm^2 | 5 (6.5%) n (%) | 5 (6.5 %) n (%) | none | 15 (19%) n (%) | 0 (0%) n (%) | 57 (74%) n (%) | 282 days | 312.5 days
CO[C@H]1/C=C/O[C@@]2(C)Oc3c(C)c(O)c4c(O)c(c5c(nc6cc(C)ccn65)c4c3C2=O)NC(=O)/C(C)=C\C=C\[C@H](C)[C@H](O)[C@@H](C)[C@@H](O)[C@@H](C)[C@H](OC(C)=O)[C@@H]1C [Rifaximin, 4-deoxy-4'-methylpyrido[1',2'-1,2]imidazo-[5,4-c] rifamycin SV] | 162 (134, 190) cm^2 | +0.74 cm^2 | 2 (3.4%) n (%) | – | one | 4 (6.9%) n (%) | 1 (1.7%) n (%) | 51 (88%) n (%) | 265.5 days | 353 days
